PMC4813177, “Molecular Recognition of the Catalytic Zinc(II) Ion in MMP-13: Structure-Based Evolution of an Allosteric Inhibitor to Dual Binding Mode Inhibitors with Improved Lipophilic Ligand Efficiencies” (International Journal of Molecular Sciences, 2016)

Target: T1, MMP-13 (Homo sapiens, UniProt P45452)
T1 construct: purchased Reaction Biology Corporation, Malvern, PA, USA (contract assay service)
Assay: MMP-13 in vitro inhibition assay (FRET peptide substrate)
Type: biochemical
Conditions: for LE (Ligand Efficiency): 1.4(−logIC50)/N, N = number of non-hydrogen atoms; for LLE (lipophilic ligand efficiency): LLE = pIC50 - clogP; for remaining activity at 10 µM: at 10 μM inhibitor concentration, read-out: % Activity (remaining enzyme activity); for remaining activity at 10 µM / IC50: triplicate; for IC50: 10 concentrations starting at 10 μM
Procedure: Consecutively the synthesized compounds were tested for their inhibition activity against MMP-13 in in vitro assays. The values are averaged over triplicate determinations (Table 1).
The substrate used for the determinations was the (5-FAM/QXLTM) FRET peptide. The buffer consisted of 50 mM HEPES at pH 7.5 with 10 mM CaCl2 and 0.01% Brij-35. 0.1 mg/mL BSA was added before use. As a control inhibitor GM6001 was used.

LE (Ligand Efficiency)	LLE (lipophilic ligand efficiency)	remaining activity at 10 µM [%]	IC50 [nM]	Structure (SMILES)
		15.4 ± 0.3		O=C(O)CCOc1cccc(CC(=O)Nc2ccc3c(c2)C(=O)N(Cc2ccccc2)C3=O)c1 [Compound 14, 3-(3-{[(2-benzyl-1,3-dioxo-2,3-dihydro-1H-isoindol-5-yl)carbamoyl]methyl}phenoxy)propanoic acid]
0.24	2.16	4.6 ± 0.6	777 ± 50	O=C(O)CCCOc1cccc(CC(=O)Nc2ccc3c(c2)C(=O)N(Cc2ccccc2)C3=O)c1 [Compound 15, 4-(3-{[(2-benzyl-1,3-dioxo-2,3-dihydro-1H-isoindol-5-yl)carbamoyl]methyl}phenoxy)butanoic acid]
0.25	1.70	2.6 ± 0.3	280 ± 40	O=C(O)CCCCCOc1cccc(CC(=O)Nc2ccc3c(c2)C(=O)N(Cc2ccccc2)C3=O)c1 [Compound 16, 6-(3-{[(2-benzyl-1,3-dioxo-2,3-dihydro-1H-isoindol-5-yl)carbamoyl]methyl}phenoxy)hexanoic acid]
0.27	2.46	2.4 ± 0.1	134 ± 40	O=C(O)CCCCOc1cccc(CC(=O)Nc2ccc3c(c2)C(=O)N(Cc2ccccc2)C3=O)c1 [Compound 3, 5-(3-{[(2-benzyl-1,3-dioxo-2,3-dihydro-1H-isoindol-5-yl)carbamoyl]methyl}phenoxy)pentanoic acid]
0.26	2.55	7.9 ± 0.4	586 ± 130	O=C(Cc1cccc(OCCCO)c1)Nc1ccc2c(c1)C(=O)N(Cc1ccccc1)C2=O [Compound 11, N-(2-benzyl-1,3-dioxo-2,3-dihydro-1H-isoindol-5-yl)-2-[3-(3-hydroxypropoxy)phenyl]acetamide]
0.25	2.45	6.7 ± 0.5	328 ± 50	CNC(=O)CCCCOc1cccc(CC(=O)Nc2ccc3c(c2)C(=O)N(Cc2ccccc2)C3=O)c1 [Compound 5, 5-(3-{[(2-benzyl-1,3-dioxo-2,3-dihydro-1H-isoindol-5-yl)carbamoyl]methyl}phenoxy)-N-methylpentanamide]

Second part, the molecule before the results:

Structure (SMILES)	LE (Ligand Efficiency)	LLE (lipophilic ligand efficiency)	remaining activity at 10 µM [%]	IC50 [nM]
CS(=O)(=O)NC(=O)CCCCOc1cccc(CC(=O)Nc2ccc3c(c2)C(=O)N(Cc2ccccc2)C3=O)c1 [Compound 4, 5-(3-{[(2-benzyl-1,3-dioxo-2,3-dihydro-1H-isoindol-5-yl)carbamoyl]methyl}phenoxy)-N-methanesulfonylpentanamide]	0.21	2.53	13.8 ± 1.4	767 ± 80
CS(=O)(=O)NC(=O)CCCOc1cccc(CC(=O)Nc2ccc3c(c2)C(=O)N(Cc2ccccc2)C3=O)c1 [Compound 18, 4-(3-{[(2-benzyl-1,3-dioxo-2,3-dihydro-1H-isoindol-5-yl)carbamoyl]methyl}phenoxy)-N-methanesulfonylbutanamide]	0.22	2.91	11.2 ± 0.3	896 ± 60
O=C(Cc1cccc(OCCCCCCO)c1)Nc1ccc2c(c1)C(=O)N(Cc1ccccc1)C2=O [Compound 13, N-(2-benzyl-1,3-dioxo-2,3-dihydro-1H-isoindol-5-yl)-2-{3-[(6-hydroxyhexyl)oxy]phenyl}acetamide]			33 ± 2.9	
CS(=O)(=O)NC(=O)CCOc1cccc(CC(=O)Nc2ccc3c(c2)C(=O)N(Cc2ccccc2)C3=O)c1 [Compound 17, 3-(3-{[(2-benzyl-1,3-dioxo-2,3-dihydro-1H-isoindol-5-yl)carbamoyl]methyl}phenoxy)-N-methanesulfonylpropanamide]			30.5 ± 0.8	
O=C(Cc1cccc(OCCCCCO)c1)Nc1ccc2c(c1)C(=O)N(Cc1ccccc1)C2=O [Compound 2, N-(2-benzyl-1,3-dioxo-2,3-dihydro-1H-isoindol-5-yl)-2-{3-[(5-hydroxypentyl)oxy]phenyl}acetamide]	0.24	1.53	9.1 ± 0.9	822 ± 210
O=C(Cc1cccc(OCCCCO)c1)Nc1ccc2c(c1)C(=O)N(Cc1ccccc1)C2=O [Compound 12, N-(2-benzyl-1,3-dioxo-2,3-dihydro-1H-isoindol-5-yl)-2-[3-(4-hydroxybutoxy)phenyl]acetamide]	0.26	2.22	7.6 ± 0.5	454 ± 200
